# Several values for one entry are separate records, joined by “and”; a condition that tells them apart may be missing. Equal values may be shown once.
# Assay: solvent given as SMILES
# [1] = in c1ccc(-n2c(-c3c(-n4c5ccccc5c5ccccc54)cccc3-n3c4ccccc4c4ccccc43)nc3ccccc32)cc1
# [2] = in c1cc(-c2cccc(-n3c4ccccc4c4ccccc43)c2)cc(-n2c3ccccc3c3ccccc32)c1
smiles,measurement,setting,value
O=S(=O)(c1cccc(N2c3ccccc3Oc3ccccc32)c1)c1cccc(N2c3ccccc3Oc3ccccc32)c1,emission maximum,in C1CCOC1,596 nm
same,emission maximum,in CCCCC(CC)n1c2ccc(-n3c4ccccc4c4ccccc43)cc2c2cc(-n3c4ccccc4c4ccccc43)ccc21,542.52 nm
same,emission maximum,in Cc1ccccc1,547 nm
same,emission maximum,in ClC(Cl)Cl,572 nm
same,emission maximum,in c1cc(-n2c3ccccc3c3ccccc32)cc(-n2c3ccccc3c3ccccc32)c1,546.26 nm
c1ccc(N(c2ccccc2)c2ccc(-c3ncc(-c4cnc(-c5ccc(N(c6ccccc6)c6ccccc6)cc5)s4)s3)cc2)cc1,emission maximum,in CO,510 nm
N#Cc1cccc2cc[nH]c12,emission maximum,in C1CCOC1,368 nm
same,emission maximum,in C1COCCO1,367 nm
same,emission maximum,in CC#N,378 nm
same,emission maximum,in CC(C)O,380 nm
same,emission maximum,in CCO,382 nm
same,emission maximum,in CO,387 nm
same,emission maximum,in CS(C)=O,391 nm
same,emission maximum,in O,400 nm
same,emission maximum,in OCC(F)(F)F,391 nm
COc1ccc(-c2csc(/C(C#N)=C/c3ccc(Cl)cc3Cl)n2)cc1,emission maximum,in CC#N,557 nm
CCCCCCCCCCCCOc1cc2c3c(ccc4c5c(NC6CCCCC6)cc6c7c(ccc(c1c34)c75)C(=O)N(C1CCCCC1)C6=O)C(=O)N(C1CCCCC1)C2=O,emission maximum,in ClC(Cl)Cl,722 nm
Cc1ccc(C2=CC(c3ccc(C)cc3)=[N+]3C2=Nc2c(-c4ccc(C)cc4)cc(-c4ccc(C)cc4)n2[B-]3(F)F)cc1,emission maximum,in ClC(Cl)Cl,697 nm
COc1ccc2c(c1)SCC1=C(c3ccccc3)C3=Nc4c(-c5ccccc5)c5c(n4[B-](F)(F)[N+]3=C12)-c1ccc(OC)cc1SC5,emission maximum,in ClC(Cl)Cl,730 nm
CCCCC(CC)COc1cc(OCC(CC)CCCC)c2c#cc3ccc4oc5ccc(c#cc6cc(c#cc7ccc8oc9ccc(c#cc1c2)cc9c8c7)c(C(CCCC)OCCC)cc6C(CCCC)OCCC)cc5c4c3 (configuration not stated),emission maximum,in ClCCl,377 nm
O=Cc1ccc2nc(C#Cc3ccc(N(c4ccccc4)c4ccccc4)cc3)sc2c1,emission maximum,in Cc1ccccc1,473 nm
O=C(O)CCCCCn1c2ccccc2c(=O)c2cc(F)ccc21,emission maximum,in O,432 nm
CCn1c2sccc2c2c3nsnc3c3c4ccsc4n(CC)c3c21,emission maximum,in C1CCOC1,521 nm
same,emission maximum,in CCOC(C)=O,521 nm
same,emission maximum,in CN(C)C=O,552 nm
same,emission maximum,in Cc1ccccc1,508 nm
same,emission maximum,in ClCCl,548 nm
c1ccc(-c2cc(-c3nnc(-c4ccc(N5c6ccccc6Oc6ccccc65)cc4)o3)c(-c3ccccc3)c(-c3ccccc3)c2-c2ccccc2)cc1,emission maximum,in Cc1ccccc1,495 nm
same,emission maximum,[1],495 nm
c1ccc(N(c2ccccc2)c2ccc(-c3ccc(-c4ccc(-c5ccc(-c6ccc(N(c7ccccc7)c7ccccc7)cc6)s5)c5nsnc45)s3)cc2)cc1,emission maximum,in ClC(Cl)Cl,690 nm
Cc1cccc2ccccc12,emission maximum,in C1CCCCC1,339.9 nm
CSc1ccc(-c2nc3sc4ccccc4c3s2)cc1,emission maximum,in CS(C)=O,431 nm
CC(C)(C)c1ccc2c(c1)c1cc(C(C)(C)C)ccc1n2-c1cc(C(=O)c2ccccc2)cc(-n2c3ccc(C(C)(C)C)cc3c3cc(C(C)(C)C)ccc32)c1,emission maximum,in Cc1ccccc1,466.36 nm
same,emission maximum,[2],470.81 nm
O=C1OC(=O)C2=C1[Se][C@]13C2=C[C@H](c2ccccc21)c1ccccc13,emission maximum,in ClCCl,517 nm
COc1cc(C=O)cc(-c2[nH]c(=O)n3c2-c2ccccc2C3=O)c1O,emission maximum,in CC#N,473 nm
same,emission maximum,in CO,490 nm
same,emission maximum,in ClCCl,467 nm
Cc1cc(-n2c3ccccc3c3ccccc32)c(-n2c3ccccc3c3ccccc32)cc1C#N,emission maximum,[2],485 nm
same,emission maximum,in c1ccc2c(c1)c1ccccc1n2-c1ccc2sc3ccc(-n4c5ccccc5c5ccccc54)cc3c2c1,489 nm
same,emission maximum,in c1ccc2c(c1)c1ccccc1n2-c1ccc2sc3ccc(-n4c5ccccc5c5cccnc54)cc3c2c1,495 nm
same,emission maximum,in c1ccc2c(c1)c1cccnc1n2-c1ccc2sc3ccc(-n4c5ccccc5c5cccnc54)cc3c2c1,498 nm
CC(C)c1cc(C(C)C)c(-c2nnc(-c3ccc(-n4c5ccccc5c5ccccc54)cc3)o2)c(C(C)C)c1,emission maximum,in CCO,435 nm
same,emission maximum,in Cc1ccccc1,377 nm
CN(C)c1ccc(-c2cc(=O)c3ccccc3o2)cc1,emission maximum,in C1CCCCC1,382.35 nm
same,emission maximum,in CC#N,474 nm and 462.75 nm
same,emission maximum,in CCOC(C)=O,442 nm and 433.73 nm
same,emission maximum,in Cc1ccccc1,417 nm
CC1(C)CC(/C=C/c2ccc(-n3c4ccccc4c4ccccc43)cc2)=CC(=C(C#N)C#N)C1,emission maximum,in C1CCOC1,571 nm
same,emission maximum,in CC#N,600 nm
same,emission maximum,in CCO,583 nm
same,emission maximum,in CCOC(C)=O,565 nm
same,emission maximum,in ClCCl,582 nm
same,emission maximum,in c1ccccc1,534 nm
[NH3+]c1cc([NH3+])cc(-c2[nH+]c3ccccc3s2)c1,emission maximum,in O,460 nm
Cc1ccc(-c2ccc(-c3ccc(-c4ccc(-c5ccc(C)cc5)cc4)c(/C(=C(/c4ccccc4)c4cc(-c5ccc(-c6ccc(C)cc6)cc5)ccc4-c4ccc(-c5ccc(C)cc5)cc4)c4ccccc4)c3)cc2)cc1,emission maximum,in C1CCOC1,498 nm
CCCC1=Cc2nc1ccc1[nH]c(cc1CCC)c1nc(ccc3[nH]c2cc3CCC)C(CCC)=C1,emission maximum,in Cc1ccccc1,641 nm
C[C@H](Nc1c2ccc(=[N+]3CCCCC3)cc-2oc2cc(N3CCCCC3)ccc12)C(=O)OC(C)(C)C,emission maximum,in ClCCl,544 nm
COc1ccc(-c2nc(-c3cccc(OC)c3)[nH]c2-c2ccc(OC)cc2)cc1,emission maximum,in CO,399 nm
CC1(C)c2ccccc2N(c2ccc(-c3nnc(-c4cc(-c5ccccc5)c(-c5ccccc5)c(-c5ccccc5)c4-c4ccccc4)o3)cc2)c2ccccc21,emission maximum,in Cc1ccccc1,445 nm
same,emission maximum,[1],453 nm
O=c1[nH]c(=O)c2scc([C@H]3C[C@H](O)[C@@H](CO)O3)c2[nH]1,emission maximum,in CC#N,345 nm
same,emission maximum,in CCOC(C)=O,343 nm
same,emission maximum,in CO,351 nm
same,emission maximum,in O,351 nm
O=C(O)COc1cccc(-c2c3nc(cc4ccc([nH]4)c(-c4cccc(OCC(=O)O)c4)c4nc(cc5ccc2[nH]5)C=C4)C=C3)c1,emission maximum,in CS(C)=O,633 nm
O=[N+]([O-])c1ccc(/C=C/c2nc3c4ccccc4c4ccccc4c3o2)cc1,emission maximum,in CC#N,602 nm
CC[n+]1c(-c2ccccc2)c2cc(NC(N)=[NH2+])ccc2c2ccc(NC(N)=[NH2+])cc21,emission maximum,in O,500 nm
CCCCn1c2ccc(C#N)cc2c2cc(C#N)cc(-c3ccc(N(c4ccccc4)c4ccccc4)cc3)c21,emission maximum,in C1CCCCC1,407 nm
same,emission maximum,in C1CCOC1,440 nm
same,emission maximum,in CC#N,474 nm
same,emission maximum,in CCCCOCCCC,412 nm
same,emission maximum,in CCN(CC)CC,410.48 nm
same,emission maximum,in CCOC(C)=O,438 nm
same,emission maximum,in CCOCC,424 nm
same,emission maximum,in CN(C)C=O,472 nm
same,emission maximum,in Cc1ccccc1,415 nm
same,emission maximum,in ClC=C(Cl)Cl,420 nm
same,emission maximum,in ClCCl,447 nm
Cc1ccc(C#Cc2ccc3nc4ccc(C#Cc5ccc(C)cc5)cn4c(=O)c3c2)cc1,emission maximum,in ClCCl,480 nm
CC(=O)Nc1ccc2c(c1)c(=O)c1cc(NC(C)=O)ccc1n2CCCCCC(=O)O,emission maximum,in O,463 nm
C#Cc1ccc2cc3c(C)cc(=O)oc3cc2c1,emission maximum,in CCO,437 nm
N#C/C(=C/Nc1ccc(C#N)cc1)c1nc(-c2ccccc2)cs1,emission maximum,in CCO,434 nm
same,emission maximum,in CN(C)C=O,436 nm
same,emission maximum,in Cc1ccccc1,438 nm
same,emission maximum,in ClCCl,437 nm
CC1(C)C(/C=C/C=C/C=C/C=C2/N(S(=O)(=O)[O-])c3ccc(S(=O)(=O)[O-])cc3C2(C)C)=[N+](S(=O)(=O)[O-])c2ccc(S(=O)(=O)[O-])cc21,emission maximum,in CO,776 nm
same,emission maximum,in O,771 nm
Cc1ccc(C2=C3C=CC(c4ccccc4)=[N+]3[B-](F)(F)n3c2ccc3-c2ccccc2)cc1,emission maximum,in C1CCCCC1,585 nm
same,emission maximum,in C1CCOC1,586 nm
same,emission maximum,in C1COCCO1,587 nm
same,emission maximum,in CCOC(C)=O,583 nm
same,emission maximum,in CO,582 nm
same,emission maximum,in Cc1ccccc1,589 nm
same,emission maximum,in ClC(Cl)Cl,588 nm
CN(C)c1ccc(/C=C/c2cc(/C=C/c3ccc(N(C)C)cc3)nc(/C=C/c3ccccc3)n2)cc1,emission maximum,in C1CCOC1,526 nm
same,emission maximum,in CC#N,587 nm
same,emission maximum,in CC(C)=O,563 nm
same,emission maximum,in CCCCCCC,453 nm
same,emission maximum,in CS(C)=O,601 nm
same,emission maximum,in Cc1ccccc1,483 nm
same,emission maximum,in ClCCl,537 nm
Cc1ccc2nnn(-c3c(C#N)c4c(N)ncnc4n3[C@H]3C[C@H](O)[C@@H](CO)O3)c2c1,emission maximum,in CO,419 nm
CCCN1/C(=C/C=C(/C=C/c2sc3ccccc3[n+]2CCC)c2ccc([N+](=O)[O-])cc2)Sc2ccccc21,emission maximum,in CO,663 nm
same,emission maximum,in CS(C)=O,673 nm
same,emission maximum,in O,669 nm
F[B-]12OC(c3ccccc3)=Nc3cccc([n+]31)N=C(c1ccccc1)O2,emission maximum,in ClCCl,456 nm
C(=C\c1cnccn1)/c1ccc2nccnc2c1,emission maximum,in CCCCCC,403 nm
same,emission maximum,in CCO,435 nm
same,emission maximum,in CO,443 nm
same,emission maximum,in ClCCl,417 nm
same,emission maximum,in c1ccccc1,410 nm
CCN(CC)c1ccc(-c2nc3c(c4c2-c2ccc(C#N)cc2CC4)-c2ccc(C#N)cc2CC3)cc1,emission maximum,in C1CCOC1,499 nm
same,emission maximum,in CC#N,525 nm
same,emission maximum,in CCCCCC,455 nm
same,emission maximum,in CCOC(C)=O,494 nm
same,emission maximum,in CO,525 nm
same,emission maximum,in CS(C)=O,541 nm
same,emission maximum,in Cc1ccccc1,474 nm
same,emission maximum,in ClCCl,493 nm
Cc1ccc(C(=O)OCc2c(C)c(=O)n3c(=O)c(C)c(C)n23)cc1,emission maximum,in CCO,460 nm
COC(=O)/C=C/C=C/C1=CC2=C(c3c(C)cc(C)cc3C)c3cc(/C=C/C=C/C(=O)OC)cn3[B-](F)(F)[N+]2=C1,emission maximum,in ClCCl,662 nm
CCOC(=O)c1c(-c2c(Cl)c3ccccc3oc2=O)nn(-c2ccc(Br)cc2)c1C(=O)OCC,emission maximum,in ClCCl,406 nm
c1ccc2c(c1)c1ccccc1n2-c1ccc(-c2ccc(-n3c4ccccc4c4ccccc43)nc2-n2c3ccccc3c3ccccc32)nn1,emission maximum,in CC#N,464.96 nm
same,emission maximum,in Cc1ccccc1,423 nm
same,emission maximum,in ClCCl,432.68 nm
CC(C)[Si](C#CC1=CC2=c3cc(C#C[Si](C(C)C)(C(C)C)C(C)C)c4nc(C(F)(F)C(F)(F)C(F)(F)F)nc5c(C#C[Si](C(C)C)(C(C)C)C(C)C)cc(c3c54)C3=CC(C#C[Si](C(C)C)(C(C)C)C(C)C)=C4N=C(C(F)(F)C(F)(F)C(F)(F)F)N=C1C4C32)(C(C)C)C(C)C (configuration not stated),emission maximum,in C1CCOC1,525 nm
